Test system: A. baumannii
Assay: microbe, parasite or virus in culture
Conditions: for RO7223280 MIC 80%: read at 80%; for RO7223280 MIC 100%: read at 100%
In short: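 CLSI broth microdilution (M07/M100); inoculum from 0.5 McFarland suspension diluted in CAMHB; MIC = lowest concentration with no visible growth or where OD600 stops falling.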

[1] = A. baumannii ATCC 17978, Study LGC308175
[2] = A. baumannii ATCC 19606, Study LGC296813
[3] = A. baumannii ATCC 19606, Study LGC299544
[4] = A. baumannii ATCC 19606, Study LGC308175
[5] = A. baumannii ROB08701, Study LGC296813
[6] = A. baumannii ROB08701, Study LGC299544
[7] = A. baumannii ROB08701, Study LGC308175
[8] = A. baumannii ROB08702, Study LGC296813
[9] = A. baumannii ROB08702, Study LGC299544
[10] = A. baumannii ROB08702, Study LGC308175
[11] = A. baumannii ROB08703, Study LGC296813
[12] = A. baumannii ROB08703, Study LGC299544
[13] = A. baumannii ROB08703, Study LGC308175
[14] = A. baumannii ROB08704, Study LGC296813
[15] = A. baumannii ROB08704, Study LGC299544
[16] = A. baumannii ROB08704, Study LGC308175
[17] = A. baumannii ROB08705, Study LGC296813
[18] = A. baumannii ROB08705, Study LGC299544
[19] = A. baumannii ROB08705, Study LGC308175
[20] = A. baumannii ROB08706, Study LGC296813
[21] = A. baumannii ROB08706, Study LGC299544
[22] = A. baumannii ROB08706, Study LGC308175
[23] = A. baumannii ROB08707, Study LGC296813

CN1C(=O)[C@H](CCCCN)NC(=O)[C@H](CCCN)NCc2cccnc2Sc2cccc(-c3ccc(C(=O)O)cc3)c2CNC(=O)[C@@H]1Cc1c[nH]c2ccccc12 [zosurabalpin]
MIC range (10 MDR isolates, CAMHB, MCPs read at 80% growth inhibition): 0.12 to 1 µg/mL
RO7223280 MIC 80% [1]: ≤0.06 µg/mL
RO7223280 MIC 100% [1]: 0.12 µg/mL
RO7223280 MIC 80% [2]: 0.25 µg/mL
RO7223280 MIC 100% [2]: 0.25 µg/mL
RO7223280 MIC 80% [3]: 0.25 µg/mL
RO7223280 MIC 100% [3]: 0.25 µg/mL
RO7223280 MIC 80% [4]: 0.25 µg/mL
RO7223280 MIC 100% [4]: 0.25 µg/mL
RO7223280 MIC 80% [5]: 0.25 µg/mL
RO7223280 MIC 100% [5]: 0.25 µg/mL
RO7223280 MIC 80% [6]: 0.12 µg/mL
RO7223280 MIC 100% [6]: 0.5 µg/mL
RO7223280 MIC 80% [7]: 0.25 µg/mL
RO7223280 MIC 100% [7]: 0.25 µg/mL
RO7223280 MIC 80% [8]: 0.25 µg/mL
RO7223280 MIC 100% [8]: 0.25 µg/mL
RO7223280 MIC 80% [9]: 0.25 µg/mL
RO7223280 MIC 100% [9]: >64 µg/mL
RO7223280 MIC 80% [10]: 0.25 µg/mL
RO7223280 MIC 100% [10]: >64 µg/mL
RO7223280 MIC 80% [11]: 0.25 µg/mL
RO7223280 MIC 100% [11]: 0.5 µg/mL
RO7223280 MIC 80% [12]: 0.25 µg/mL
RO7223280 MIC 100% [12]: 0.5 µg/mL
RO7223280 MIC 80% [13]: 0.5 µg/mL
RO7223280 MIC 100% [13]: 0.5 µg/mL
RO7223280 MIC 80% [14]: 0.25 µg/mL
RO7223280 MIC 100% [14]: 0.5 µg/mL
RO7223280 MIC 80% [15]: 0.25 µg/mL
RO7223280 MIC 100% [15]: 1 µg/mL
RO7223280 MIC 80% [16]: 0.5 µg/mL
RO7223280 MIC 100% [16]: 0.5 µg/mL
RO7223280 MIC 80% [17]: 0.25 µg/mL
RO7223280 MIC 100% [17]: 0.25 µg/mL
RO7223280 MIC 80% [18]: 0.12 µg/mL
RO7223280 MIC 100% [18]: 0.12 µg/mL
RO7223280 MIC 80% [19]: ≤0.06 µg/mL
RO7223280 MIC 100% [19]: 0.12 µg/mL
RO7223280 MIC 80% [20]: 1 µg/mL
RO7223280 MIC 100% [20]: 1 µg/mL
RO7223280 MIC 80% [21]: 1 µg/mL
RO7223280 MIC 100% [21]: >64 µg/mL
RO7223280 MIC 80% [22]: 2 µg/mL
RO7223280 MIC 100% [22]: >64 µg/mL
RO7223280 MIC 80% [23]: 0.25 µg/mL
RO7223280 MIC 100% [23]: 0.25 µg/mL
